Experimental data taken from patent EP4671239A1, “ARYL SUBSTITUENT-CONTAINING DEGRADATION AGENT FOR CDK12/13, PREPARATION METHOD THEREFOR, AND PHARMACEUTICAL COMPOSITION AND USE THEREOF” (Shanghai Institute of Organic Chemistry, Chinese Academy of …, priority 2023, dated 2024).

Columns and labels:
CDK12 and CDK13 proteins [1] = assay: Degradation activity on CDK12/13 in 22RV1 cells (Western Blot); type: cell-based; conditions: 22RV1 cells; for degradation of CDK12 and CDK13 protein levels in cells: 500 nM, 6 hours, WB (FIG. 4); for degradation of CDK12 and CDK13 proteins: 100 nM, 6 h (FIG. 5); for dose dependence of degradation of CDK12 and CDK13 proteins: different concentrations, 6 h (FIG. 4B, FIG. 5)
Method: Experimental methods: The cell line, 22RV1 cell line was purchased from the American Type Culture Collection (ATCC). Conventional Western Blot was used for detection as follows: 22RV1 cells were seeded in a certain number in a 12-well plate, and cultured overnight in an incubator in an adherent manner. […] The cells were lysed with a lysis buffer, and samples were collected. Then, an appropriate amount of the samples was taken for SDS-PAGE electrophoresis. After electrophoresis, the proteins were transferred to nitrocellulose membranes using a semi-dry electro-transfer system. The nitrocellulose membrane was placed in a blocking solution (5% skim milk powder diluted in TBS containing 0.1% Tween 20) and blocked at room temperature for 2 h. The membranes were then placed in a primary antibody solution (1: 1000 diluted in TBS containing 0.1% Tween 20), respectively, and incubated at 4°C overnight. The cells were washed three times with TBS containing 0.1% Tween 20, each time for 15 min. The membrane was placed in a secondary antibody solution (horseradish peroxidase-labeled goat anti-rabbit IgG, diluted at 1:1000 in TBS containing 0.1% Tween 20) and reacted at room temperature for 1 h. After washing the membrane three times as above, the membrane was developed with ECL plus reagent and photographed using Amersham Imager 600 system.

[2] = system: prostate cancer VCap cells; assay: Proliferation-inhibiting activity on VCap cells (CellTiter-Glo); type: cell-based; conditions: Homo sapiens; VCap cell line, CellTiter-Glo (FIG. 6)
Method: The cell proliferation-inhibiting activity of the compounds was determined using the CellTiter-Glo Luminescent Cell Viability Assay (Promega, Madison, WI). The cells were seeded in a 96-well plate in their respective culture media and incubated at 37°C in a 5% CO2 incubator. After overnight incubation, serial dilutions of the compounds were prepared and added to the 96-well plate. A volume of CellTiter-Glo reagent equal to the volume of the cell culture medium present in each well was added (e.g., 100 microliters of the reagent was added to 100 microliters of the culture medium for the cells in the 96-well plate). The contents were mixed on an orbital shaker for 2 min to induce cell lysis. The 96-well plate was incubated at room temperature for 10 minutes to stabilize a luminescent signal. Luminescence was recorded: the luminescence signal of each well was acquired using an Infinite M1000 Pro plate reader (Tecan, Zürich, Switzerland), and the data were analyzed using GraphPad Prism software (GraphPad Software Inc, La Jolla, CA).

[3] = Pharmacokinetics and bioavailability test in rats (Example 60); type: in vivo; conditions: SD rats; for F: bioavailability calculated from AUC; for oral pharmacokinetic properties: summary in words of Tables 2-6; for Cmax / Tmax / half-life / clearance: rat
Method: Pharmacokinetics and bioavailability tests in rats. SD rats were given a single oral (10 mg/kg), intravenous (2.5 mg/kg) and intraperitoneal (10 mg/kg) dose, followed by animal blood sample collection at appropriate time points. Heparin was added for anticoagulation, and the samples were centrifuged at 8000 rpm for 6 min. The supernatant was collected and stored at -20°C for HPLC-MS analysis. The blood samples underwent protein precipitation with acetonitrile at 12 000 rpm * 10 min, and the supernatant was used for HPCL-MS analysis. The data underwent parameter fitting with DAS2.0, to obtain compartmental model and non-compartmental model parameters, respectively. The oral bioavailability of the compounds was calculated based on the area under the plasma concentration-time curve (AUC) data. […] Table 2. Pharmacokinetic experimental results of compounds YJZ9069 and YJZ1102

[4] = system: triple negative breast cancer cells MDA-MB-231; assay: Proliferation-inhibiting activity on MDA-MB-231 cells (Cell Counting Kit-8); type: cell-based; conditions: Homo sapiens, 120 h; MDA-MB-231 cell line, 5 days, cck-8 (FIG. 3)
Method: The cell proliferation-inhibiting activity of the compounds was determined using Cell Counting Kit-8 Cell Viability Assay (Selleck.cn). The cells were seeded into a 384-well plate (CORNING® PS 3701) containing the corresponding culture medium and incubated in an incubator at 37°C with 5% CO2. After overnight incubation, a high-concentration stock solution of each compound to be tested was prepared; the compound was added to the 384-well plate according to a concentration gradient using an Echo® 650 Liquid Handler (LABCYTE®). After administration, the cell plate was placed in an incubator at 37°C with 5% CO2 and incubated for 5 days. Then, 5 µL of cck-8 reagent was added to each well of the 384-well plate using MULTIDROP® (Thermo Scientific™), and the plate was returned to the incubator for incubation for 1.5-2 h. After incubation, the plate was removed and centrifuged to remove bubbles. The absorbance of each well at 450 nm and 650 nm was obtained using EnVision® (PerkinElmer®). GraphPad Prism software (GraphPad Software Inc.) was used to process and analyze the data.

CDK12 and CDK13 proteins [5] = assay: Degradation activity on CDK12/13 in MDA-MB-231 cells (Western Blot); type: cell-based; conditions: 0.1µM or 0.3µM, 15 h, WB (FIG. 1)
Method: Experimental methods: The cell line MDA-MB-231 was purchased from the American Type Culture Collection (ATCC). Conventional Western Blot was used for detection, as follows: MDA-MB-231 cells were seeded at a density of 2 x 10^5/mL in a 12-well plate, with 1 mL per well, and cultured overnight in an incubator in an adherent manner. Then, a certain concentration of compounds was added to act for 15 h. The cells were lysed with a lysis buffer, and protein samples were collected. An appropriate amount of the sample was taken for SDS-PAGE electrophoresis. After electrophoresis, the protein was transferred to a polyvinylidene fluoride (PVDF) membrane using a wet electro-transfer system. The PVDF membrane after electro-transfer was cut into several required strips, which were then placed in a blocking solution (5% skim milk powder diluted in TBS containing 0.1% Tween 20) and blocked at room temperature for 1.5 h. A primary antibody solution was prepared by diluting a primary antibody against the corresponding target protein in TBS containing 0.1% Tween 20 according to the dilution requirements of different antibodies, such as 1:1000 (CST), 1:3000 (Proteintech, Bethyl), and 1:200 (Santacruz). The blocked membrane was placed in the corresponding primary antibody solution and incubated at 4°C for 12-14 h. Then, the cells were washed three times with TBS containing 0.1% Tween 20, each time for 5 min. After washing, the membrane was placed in a secondary antibody solution (horseradish peroxidase-labeled goat anti-rabbit IgG, diluted at 1:2000 in TBS containing 0.1% Tween 20) and reacted at room temperature for 2 h. After washing the membrane three times as above, the membrane was developed with StarSignal plus reagent (GenStar®) and Omni-ECL reagent (Yazyme®), and photographed with Amersham Imager 800 system.

[6] = Sprague-Dawley, plasma, IV 2.5 mg/kg
[7] = Sprague-Dawley, plasma, PO 10 mg/kg

SMILES	degradation of CDK12 and CDK13 protein levels in cells (CDK12 and CDK13 proteins [1])	IC50 [2] [nM]	F ([3]; PO 10 mg/kg) [%]	oral pharmacokinetic properties [3]	Cmax [3, 6] [ng/mL]	Tmax [3, 6] [h]	clearance [3, 6] [mL/min/kg]	half-life [3, 6] [h]	Cmax [3, 7] [ng/mL]	Tmax [3, 7] [h]	half-life [3, 7] [h]	degradation of CDK12 and CDK13 proteins (CDK12 and CDK13 proteins [1])	dose dependence of degradation of CDK12 and CDK13 proteins (CDK12 and CDK13 proteins [1])	other results
O=C1CCC(N2C(=O)c3ccc(N4CC(CN5CCN(c6ccc(N(C(=O)NCc7ccccc7)[C@H]7CC[C@H](Nc8ncc9ccccc9n8)CC7)cc6)CC5)C4)cc3C2=O)C(=O)N1 (stereo partly drawn) [YJZ1102]	effectively degrade	16.3	17.28	excellent										F ([3]; IP 10 mg/kg): 94.15%; Cmax ([3]; in vivo, IP 10 mg/kg): 662 ng/mL; Tmax ([3]; in vivo, IP 10 mg/kg): 6.67 h; half-life ([3]; in vivo, IP 10 mg/kg): 26.4 h; Cmax ([3]; in vivo, IV 2.5 mg/kg): 2200 ng/mL; Tmax ([3]; in vivo, IV 2.5 mg/kg): 0.08 h; clearance ([3]; in vivo, IV 2.5 mg/kg): 3.32 mL/min/kg; half-life ([3]; in vivo, IV 2.5 mg/kg): 10.7 h; Cmax ([3]; in vivo, PO 10 mg/kg): 148 ng/mL; Tmax ([3]; in vivo, PO 10 mg/kg): 6 h; half-life ([3]; in vivo, PO 10 mg/kg): 10.4 h
O=C1CCC(N2C(=O)c3ccc(N4CCC(N5CCN(c6ccc(N(C(=O)NCc7ccccc7)[C@H]7CC[C@H](Nc8ncc9ccccc9n8)CC7)cc6)CC5)CC4)cc3C2=O)C(=O)N1 (stereo partly drawn) [YJZ1105, 3-benzyl-1-(4-(4-(1-(2-(2,6-dioxopiperidin-3-yl)-1,3-dioxoisoindol-5-yl)piperidin-4-yl)-piperazin-1-yl)phenyl)-1-((1r,4r)-4-(quinazolin-2-ylamino)cyclohexyl)urea]	effectively degrade	15.1	26.64	excellent	1390	0.08	4.8	7.05	625	6	7.2			
O=C1CCC(N2C(=O)c3cc(F)c(N4CCC(N5CCN(c6ccc(N(C(=O)NCc7ccccc7)[C@H]7CC[C@H](Nc8ncc9ccccc9n8)CC7)cc6)CC5)CC4)cc3C2=O)C(=O)N1 (stereo partly drawn) [YJZ1201]	effectively degrade	64.4	39.60	excellent	2510	0.08	3.27	10.8	1040	6.67	12.4	almost completely degrade	dose-dependent manner	
O=C1CCC(N2C(=O)c3ccc(N4CCN(C5CCN(c6ccc(N(C(=O)NCc7ccccc7)[C@H]7CC[C@H](Nc8ncc9ccccc9n8)CC7)cc6)CC5)CC4)cc3C2=O)C(=O)N1 (stereo partly drawn) [YJZ1202, 3-benzyl-1-(4-(4-(2-(2,6-dioxopiperidin-3-yl)-1,3-dioxoisoindole-5-yl)piperazin-1-yl)piperidin-1-ylphenyl)-1-((1r,4r)-4-(quinazolin-2-ylamino)cyclohexyl)urea]	effectively degrade	17.5	13.51	excellent								almost completely degrade	dose-dependent manner	Cmax ([3]; in vivo, IV 2.5 mg/kg): 2310 ng/mL; Tmax ([3]; in vivo, IV 2.5 mg/kg): 0.08 h; clearance ([3]; in vivo, IV 2.5 mg/kg): 6.7 mL/min/kg; half-life ([3]; in vivo, IV 2.5 mg/kg): 4.13 h; Cmax ([3]; in vivo, PO 10 mg/kg): 291 ng/mL; Tmax ([3]; in vivo, PO 10 mg/kg): 5.33 h; half-life ([3]; in vivo, PO 10 mg/kg): 3.76 h
O=C1CCC(N2C(=O)c3ccc(N4CCC(N5CCN(c6ccc(N(C(=O)NCc7ccccc7F)[C@H]7CC[C@H](Nc8ncc9ccccc9n8)CC7)cc6)CC5)CC4)cc3C2=O)C(=O)N1 (stereo partly drawn) [YJZ1203]	effectively degrade	18.8	16.95	excellent	3060	0.08	5.22	6.19	382	6.7	6.4	almost completely degrade	dose-dependent manner	
O=C1CCC(N2C(=O)c3ccc(N4CCC(N5CCN(c6ccc(N(C(=O)NCc7ccccc7)[C@H]7CC[C@H](Nc8ncc9ccccc9n8)CC7)cc6F)CC5)CC4)cc3C2=O)C(=O)N1 (stereo partly drawn) [YJZ1204, 3-benzyl-1-(4-(4-(1-(2-(2,6-dioxopiperidin-3-yl)-1,3-dioxoisoindole-5-yl)piperidin-4-yl)-piperazin-1-yl)-3-fluorophenyl)-1-((1r,4r)-4-(quinazolin-2-ylamino)cyclohexyl)urea]	effectively degrade	23.3	30.13	excellent	2290	0.08	6.01	8.54	457	7.33	10.8	almost completely degrade	dose-dependent manner	
O=C1CCC(N2C(=O)c3ccc(N4CCC(N5CCN(c6ccc(N(C(=O)NCc7ccccc7)[C@H]7CC[C@H](Nc8ncc9ccccc9n8)CC7)cn6)CC5)CC4)cc3C2=O)C(=O)N1 (stereo partly drawn) [YJZ1205]	effectively degrade	13.5	15.87	excellent	3620	0.08	3.93	3.81	581	4.7	4.2	almost completely degrade	dose-dependent manner	
N#Cc1ccc(N[C@H]2CC[C@H](N(C(=O)NCc3ccccc3)c3ccc(N4CCN(CC5CN(c6ccc7c(c6)C(=O)N(C6CCC(=O)NC6=O)C7=O)C5)CC4)cc3)CC2)nc1 (stereo partly drawn) [ZLC5-6]														IC50 [4]: 498 nM; degradation of CDK12 and CDK13 protein levels in cells (CDK12 and CDK13 proteins [5]): effectively degrade
